Assay results from ChEMBL document CHEMBL3046063, “Synthesis and antimicrobial activity of 5-chloroindoline-2,3-dione derivatives” (2012).
Values after ≈ are worked out from the molar mass of the structure shown.

How the values were obtained:
Format in all cases: functional
Bacillus spizizenii = experiment: Antimicrobial activity against Bacillus subtilis subsp. spizizenii ATCC 6633 after 24 hr by broth dilution method; conditions: ATCC 6633, 24 h
[1] = system: Staphylococcus epidermidis; experiment: Antimicrobial activity against Staphylococcus epidermidis ATCC 12228 after 24 hr by broth dilution method; conditions: ATCC 12228, 24 h
Micrococcus luteus = experiment: Antimicrobial activity against Micrococcus luteus ATCC 4698 after 24 hr by broth dilution method; conditions: ATCC 4698, 24 h
Staphylococcus aureus = experiment: Antimicrobial activity against Staphylococcus aureus ATCC 25923 after 24 hr by broth dilution method; conditions: ATCC 25923, 24 h
Staphylococcus hominis = experiment: Antimicrobial activity against Staphylococcus hominis ATCC 27844 after 24 hr by broth dilution method; conditions: ATCC 27844, 24 h
Bacillus pumilus = experiment: Antimicrobial activity against Bacillus pumilus ATCC 14884 after 24 hr by broth dilution method; conditions: ATCC 14884, 24 h
Bacillus cereus = experiment: Antimicrobial activity against Bacillus cereus ATCC 11778 after 24 hr by broth dilution method; conditions: ATCC 11778, 24 h
Proteus vulgaris = experiment: Antimicrobial activity against Proteus vulgaris ATCC 13315 after 24 hr by broth dilution method; conditions: ATCC 13315, 24 h
Proteus mirabilis = experiment: Antimicrobial activity against Proteus mirabilis ATCC 49565 after 24 hr by broth dilution method; conditions: ATCC 49565, 24 h
Salmonella typhi = experiment: Antimicrobial activity against Salmonella enterica subsp. enterica serovar Typhi ATCC 19430 after 24 hr by broth dilution method; conditions: ATCC 19430, 24 h
Klebsiella pneumoniae = experiment: Antimicrobial activity against Klebsiella pneumoniae ATCC 13883 after 24 hr by broth dilution method; conditions: ATCC 13883, 24 h
Escherichia coli = experiment: Antimicrobial activity against Escherichia coli ATCC 25922 after 24 hr by broth dilution method; conditions: ATCC 25922, 24 h
Pseudomonas aeruginosa = experiment: Antimicrobial activity against Pseudomonas aeruginosa ATCC 10145 after 24 hr by broth dilution method; conditions: ATCC 10145, 24 h
Aspergillus niger = experiment: Antimicrobial activity against Aspergillus niger ATCC 9142 after 24 hr by broth dilution method; conditions: ATCC 9142, 24 h
Aspergillus awamori = experiment: Antimicrobial activity against Aspergillus awamori ATCC 22342 after 24 hr by broth dilution method; conditions: ATCC 22342, 24 h
Candida albicans = experiment: Antimicrobial activity against Candida albicans ATCC 10231 after 24 hr by broth dilution method; conditions: ATCC 10231, 24 h
Alternaria alternata = experiment: Antimicrobial activity against Alternaria alternata ATCC 66868 after 24 hr by broth dilution method; conditions: ATCC 66868, 24 h
Microsporum canis = experiment: Antimicrobial activity against Arthroderma otae ATCC 11622 after 24 hr by broth dilution method; conditions: ATCC 11622, 24 h
Rhizoctonia solani = experiment: Antimicrobial activity against Rhizoctonia solani ATCC 76131 after 24 hr by broth dilution method; conditions: ATCC 76131, 24 h
Trichophyton longifusum = experiment: Antimicrobial activity against Trichophyton longifusum ATCC 22397 after 24 hr by broth dilution method; conditions: ATCC 22397, 24 h
Fusarium solani = experiment: Antimicrobial activity against Fusarium solani ATCC 38136 after 24 hr by broth dilution method; conditions: ATCC 38136, 24 h
Trichoderma viride = experiment: Antimicrobial activity against Hypocrea rufa ATCC 52440 after 24 hr by broth dilution method; conditions: ATCC 52440, 24 h
Aspergillus flavus = experiment: Antimicrobial activity against Aspergillus flavus ATCC 15517 after 24 hr by broth dilution method; conditions: ATCC 15517, 24 h
Aspergillus fumigatus = experiment: Antimicrobial activity against Aspergillus fumigatus after 24 hr by broth dilution method

Row | Compound | MIC (Bacillus spizizenii) [µg/mL] | MIC [1] [µg/mL] | MIC (Micrococcus luteus) [µg/mL] | MIC (Staphylococcus aureus) [µg/mL] | MIC (Staphylococcus hominis) [µg/mL] | MIC (Bacillus pumilus) [µg/mL] | MIC (Bacillus cereus) [µg/mL] | MIC (Proteus vulgaris) [µg/mL] | MIC (Proteus mirabilis) [µg/mL] | MIC (Salmonella typhi) [µg/mL] | MIC (Klebsiella pneumoniae) [µg/mL] | MIC (Escherichia coli) [µg/mL] | MIC (Pseudomonas aeruginosa) [µg/mL] | MIC (Aspergillus niger) [µg/mL] | MIC (Aspergillus awamori) [µg/mL] | MIC (Candida albicans) [µg/mL] | MIC (Alternaria alternata) [µg/mL] | MIC (Microsporum canis) [µg/mL] | MIC (Rhizoctonia solani) [µg/mL] | MIC (Trichophyton longifusum) [µg/mL] | other results
1 | O=C1Nc2ccc(Cl)cc2/C1=N/N1C(=O)CSC1c1ccc(F)cc1 (centres undefined) | 18.8 (≈ 49.9 µM) | 9.37 (≈ 24.9 µM) | 18.8 (≈ 49.9 µM) | 18.8 (≈ 49.9 µM) | 9.37 (≈ 24.9 µM) | 9.37 (≈ 24.9 µM) | 9.37 (≈ 24.9 µM) | 18.8 (≈ 49.9 µM) | 18.8 (≈ 49.9 µM) | 9.37 (≈ 24.9 µM) | 18.8 (≈ 49.9 µM) | 18.8 (≈ 49.9 µM) | 9.37 (≈ 24.9 µM) | 9.37 (≈ 24.9 µM) | 9.37 (≈ 24.9 µM) | 9.37 (≈ 24.9 µM) | 9.37 (≈ 24.9 µM) | 9.37 (≈ 24.9 µM) | 4.68 (≈ 12.5 µM) | 4.68 (≈ 12.5 µM) | MIC (Fusarium solani): 4.68 µg/mL (≈ 12.5 µM); MIC (Trichoderma viride): 4.68 µg/mL (≈ 12.5 µM); MIC (Aspergillus flavus): 9.37 µg/mL (≈ 24.9 µM); MIC (Aspergillus fumigatus): 4.68 µg/mL (≈ 12.5 µM)
2 | O=C1Nc2ccc(Cl)cc2/C1=N/N1C(=O)C(Cl)C1c1ccc(F)cc1 (centres undefined) | 9.37 (≈ 24.8 µM) | 18.8 (≈ 49.6 µM) | 18.8 (≈ 49.6 µM) | 18.8 (≈ 49.6 µM) | 9.37 (≈ 24.8 µM) | 18.8 (≈ 49.6 µM) | 18.8 (≈ 49.6 µM) | 18.8 (≈ 49.6 µM) | 9.37 (≈ 24.8 µM) | 9.37 (≈ 24.8 µM) | 18.8 (≈ 49.6 µM) | 18.8 (≈ 49.6 µM) | 18.8 (≈ 49.6 µM) | 4.68 (≈ 12.4 µM) | 4.68 (≈ 12.4 µM) | 4.68 (≈ 12.4 µM) | 4.68 (≈ 12.4 µM) | 9.37 (≈ 24.8 µM) | 9.37 (≈ 24.8 µM) | 9.37 (≈ 24.8 µM) | MIC (Fusarium solani): 9.37 µg/mL (≈ 24.8 µM); MIC (Trichoderma viride): 9.37 µg/mL (≈ 24.8 µM); MIC (Aspergillus flavus): 4.68 µg/mL (≈ 12.4 µM); MIC (Aspergillus fumigatus): 9.37 µg/mL (≈ 24.8 µM)
3 | CN(C)c1ccc(C2C(Cl)C(=O)N2/N=C2\C(=O)Nc3ccc(Cl)cc32)cc1 (centres undefined) | 18.8 (≈ 46.5 µM) | 9.37 (≈ 23.2 µM) | 18.8 (≈ 46.5 µM) | 18.8 (≈ 46.5 µM) | 18.8 (≈ 46.5 µM) | 9.37 (≈ 23.2 µM) | 18.8 (≈ 46.5 µM) | 9.37 (≈ 23.2 µM) | 18.8 (≈ 46.5 µM) | 9.37 (≈ 23.2 µM) | 9.37 (≈ 23.2 µM) | 9.37 (≈ 23.2 µM) | 9.37 (≈ 23.2 µM) | 9.37 (≈ 23.2 µM) | 9.37 (≈ 23.2 µM) | 4.68 (≈ 11.6 µM) | 4.68 (≈ 11.6 µM) | 4.68 (≈ 11.6 µM) | 9.37 (≈ 23.2 µM) | 4.68 (≈ 11.6 µM) | MIC (Fusarium solani): 9.37 µg/mL (≈ 23.2 µM); MIC (Trichoderma viride): 4.68 µg/mL (≈ 11.6 µM); MIC (Aspergillus flavus): 4.68 µg/mL (≈ 11.6 µM); MIC (Aspergillus fumigatus): 4.68 µg/mL (≈ 11.6 µM)
4 | COc1cccc(C2C(Cl)C(=O)N2/N=C2\C(=O)Nc3ccc(Cl)cc32)c1 (centres undefined) | 75 (≈ 192 µM) | 37.5 (≈ 96.1 µM) | 37.5 (≈ 96.1 µM) | 75 (≈ 192 µM) | 75 (≈ 192 µM) | 75 (≈ 192 µM) | 37.5 (≈ 96.1 µM) | 75 (≈ 192 µM) | 75 (≈ 192 µM) | 75 (≈ 192 µM) | 37.5 (≈ 96.1 µM) | 75 (≈ 192 µM) | 37.5 (≈ 96.1 µM) | 37.5 (≈ 96.1 µM) | 37.5 (≈ 96.1 µM) | 18.8 (≈ 48 µM) | 18.8 (≈ 48 µM) | 37.5 (≈ 96.1 µM) | 18.8 (≈ 48 µM) | 18.8 (≈ 48 µM) | MIC (Fusarium solani): 37.5 µg/mL (≈ 96.1 µM); MIC (Trichoderma viride): 37.5 µg/mL (≈ 96.1 µM); MIC (Aspergillus flavus): 18.8 µg/mL (≈ 48 µM); MIC (Aspergillus fumigatus): 18.8 µg/mL (≈ 48 µM)
5 | O=C1Nc2ccc(Cl)cc2/C1=N/N1C(=O)CSC1c1ccc(O)cc1 (centres undefined) | 18.8 (≈ 50.2 µM) | 9.37 (≈ 25.1 µM) | 18.8 (≈ 50.2 µM) | 18.8 (≈ 50.2 µM) | 9.37 (≈ 25.1 µM) | 9.37 (≈ 25.1 µM) | 18.8 (≈ 50.2 µM) | 9.37 (≈ 25.1 µM) | 18.8 (≈ 50.2 µM) | 9.37 (≈ 25.1 µM) | 9.37 (≈ 25.1 µM) | 18.8 (≈ 50.2 µM) | 9.37 (≈ 25.1 µM) | 4.68 (≈ 12.5 µM) | 4.68 (≈ 12.5 µM) | 4.68 (≈ 12.5 µM) | 9.37 (≈ 25.1 µM) | 9.37 (≈ 25.1 µM) | 9.37 (≈ 25.1 µM) | 4.68 (≈ 12.5 µM) | MIC (Fusarium solani): 4.68 µg/mL (≈ 12.5 µM); MIC (Trichoderma viride): 4.68 µg/mL (≈ 12.5 µM); MIC (Aspergillus flavus): 9.37 µg/mL (≈ 25.1 µM); MIC (Aspergillus fumigatus): 4.68 µg/mL (≈ 12.5 µM)
6 | COc1ccc(C2C(Cl)C(=O)N2/N=C2\C(=O)Nc3ccc(Cl)cc32)cc1 (centres undefined) | 18.8 (≈ 48 µM) | 9.37 (≈ 24 µM) | 9.37 (≈ 24 µM) | 18.8 (≈ 48 µM) | 18.8 (≈ 48 µM) | 9.37 (≈ 24 µM) | 9.37 (≈ 24 µM) | 18.8 (≈ 48 µM) | 18.8 (≈ 48 µM) | 9.37 (≈ 24 µM) | 9.37 (≈ 24 µM) | 9.37 (≈ 24 µM) | 9.37 (≈ 24 µM) | 4.68 (≈ 12 µM) | 4.68 (≈ 12 µM) | 4.68 (≈ 12 µM) | 9.37 (≈ 24 µM) | 9.37 (≈ 24 µM) | 9.37 (≈ 24 µM) | 4.68 (≈ 12 µM) | MIC (Fusarium solani): 4.68 µg/mL (≈ 12 µM); MIC (Trichoderma viride): 4.68 µg/mL (≈ 12 µM); MIC (Aspergillus flavus): 9.37 µg/mL (≈ 24 µM); MIC (Aspergillus fumigatus): 4.68 µg/mL (≈ 12 µM)
